Measurements: patent publication US20220169654A1, “New Organic Compounds” (Servier Pharmaceuticals LLC, priority 2020, published 2022)

Assays:
HCT116 MTAP+/+ = test: Inhibition of cellular proliferation, 4 days, Cell Titer Glo, HCT116 MTAP+/+; type: cell-based; conditions: Homo sapiens, HCT-116, 96 h, IC50 bin with Max Inh., read-out: 4 Day Relative Growth Inhibition (MTAP +/+)
How it was run: (§1)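 Isogenic HCT116 pair differing only in MTAP status, plated 24 h before treatment with 10-point 3-fold dilutions; 4 days at 37° C./5% CO2. Cell Titer Glo luminescence, blank-subtracted and normalised to 0.2% DMSO control, gives percentage proliferation vs log molar concentration for IC50.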

HCT116 MTAP−/− = test: Inhibition of cellular proliferation, 4 days, Cell Titer Glo, HCT116 MTAP−/−; type: cell-based; conditions: Homo sapiens, HCT-116, 96 h, IC50 bin with Max Inh., read-out: 4 Day Relative Growth Inhibition (MTAP −/−)
How it was run: as §1

[1] = tested on: SAM in HCT116 human colon carcinoma cell line with MTAP gene deleted (MTAP −/−); test: Cellular assay of target engagement (SAM), LC-MS/MS, 72 hrs; type: cell-based; conditions: HCT-116, IC50 bin with Max Inh., read-out: Cell 72 h SAM Inhibition (MTAP −/−)
How it was run: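 MTAP-deleted HCT116 cells plated 24 h, then given 10-point 3-fold dilutions for 72 hrs at 37° C. Intracellular SAM extracted in cold 80% methanol with 1M acetic acid and d3-SAM standard, quantified by LC-MS/MS (MRM m/z 399.2→250.1); IC50 derived.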

MAT2A homodimer = target: T1, MAT2A homodimer (Homo sapiens, UniProt P31153); test: MAT2A inhibition (biochemical, liberated phosphate, PiColorLock Gold); conditions: recombinant MAT2A homodimer; IC50 bin with Max Inh.; read-out: Enzyme Inhibition Bin
T1 construct: inferred from Ni sepharose purification with imidazole elution; made in house; host or cells: Sf9 insect cells, baculovirus (Bac to Bac, pFASTBAC1)
How it was run: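 Baculovirus/Sf9-expressed, Ni-purified MAT2A (4 μg/mL) preincubated with compound 60 min at 25 °C in Tris pH 8.0/KCl/MgCl2 buffer. Reaction started with 500 μM ATP and 400 μM L-methionine (substrate-mix concentrations), run 60 min at 25 °C. Phosphate measured colorimetrically against a phosphate standard curve to give IC50.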

T1 sequence (P31153 whole entry): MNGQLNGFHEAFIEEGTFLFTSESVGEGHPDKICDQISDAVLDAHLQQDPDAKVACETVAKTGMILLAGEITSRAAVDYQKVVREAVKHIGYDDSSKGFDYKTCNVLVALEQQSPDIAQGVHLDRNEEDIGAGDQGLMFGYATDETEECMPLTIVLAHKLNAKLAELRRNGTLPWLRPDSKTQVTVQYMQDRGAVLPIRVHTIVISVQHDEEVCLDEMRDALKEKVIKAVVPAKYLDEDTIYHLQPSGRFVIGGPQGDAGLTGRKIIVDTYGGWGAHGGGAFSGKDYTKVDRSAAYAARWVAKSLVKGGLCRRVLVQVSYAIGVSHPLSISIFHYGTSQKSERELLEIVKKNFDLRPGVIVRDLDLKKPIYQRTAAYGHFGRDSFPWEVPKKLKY

| IC50 (HCT116 MTAP+/+) [nM] | IC50 (HCT116 MTAP−/−) [nM] | IC50 [1] [nM] | IC50 (MAT2A homodimer) [nM] | SMILES |
| --- | --- | --- | --- | --- |
| 100 to 1000 | < 100 | < 100 | < 100 | C#Cc1cn(CC2CC2)c2c(-c3ccc(C4CC4)nc3)c(=O)n(-c3ccc4nn(C)cc4c3)nc12 [Example 244, 5-(cyclopropylmethyl)-4-(6-cyclopropylpyridin-3-yl)-7-ethynyl-2-(2-methyl-2H-indazol-5-yl)-2,5-dihydro-3H-pyrrolo[3,2-c]pyridazin-3-one] |
| > 1000 | 100 to 1000 | > 1000 | < 100 | Cn1cc2cc(-n3nc4c(C#CC(F)(F)F)cn(CC5CC5)c4c(-c4ccc(C5CC5)nc4)c3=O)ccc2n1 [Example 245, 5-(cyclopropylmethyl)-4-(6-cyclopropylpyridin-3-yl)-2-(2-methyl-2H-indazol-5-yl)-7-(3,3,3-trifluoroprop-1-yn-1-yl)-2,5-dihydro-3H-pyrrolo[3,2-c]pyridazin-3-one] |
| 100 to 1000 | < 100 | < 100 | < 100 | Cn1cc2cc(-n3nc4c(C(F)(F)F)cn(CC5CC5)c4c(-c4ccc(C5CC5)nc4)c3=O)ccc2n1 [Example 246, 5-(cyclopropylmethyl)-4-(6-cyclopropylpyridin-3-yl)-2-(2-methyl-2H-indazol-5-yl)-7-(trifluoromethyl)-2,5-dihydro-3H-pyrrolo[3,2-c]pyridazin-3-one] |
| > 1000 | < 100 | < 100 | < 100 | CCc1cn(CC2CC2)c2c(-c3ccc(C4CC4)nc3)c(=O)n(-c3ccc4nn(C)cc4c3)nc12 [Example 247, 5-(cyclopropylmethyl)-4-(6-cyclopropylpyridin-3-yl)-7-ethyl-2-(2-methyl-2H-indazol-5-yl)-2,5-dihydro-3H-pyrrolo[3,2-c]pyridazin-3-one] |
| > 1000 | < 100 | < 100 | < 100 | CC(C)c1cn(CC2CC2)c2c(-c3ccc(C4CC4)nc3)c(=O)n(-c3ccc4nn(C)cc4c3)nc12 [Example 248, 5-(cyclopropylmethyl)-4-(6-cyclopropylpyridin-3-yl)-7-isopropyl-2-(2-methyl-2H-indazol-5-yl)-2,5-dihydro-3H-pyrrolo[3,2-c]pyridazin-3-one] |
| > 1000 | < 100 | < 100 | < 100 | C[C@@H](O)c1cn(CC2CC2)c2c(-c3ccc(C4CC4)nc3)c(=O)n(-c3ccc4nn(C)cc4c3)nc12 [Example 249, (R)-5-(cyclopropylmethyl)-4-(6-cyclopropylpyridin-3-yl)-7-(1-hydroxyethyl)-2-(2-methyl-2H-indazol-5-yl)-2,5-dihydro-3H-pyrrolo[3,2-c]pyridazin-3-one] |
| > 1000 | < 100 | < 100 | < 100 | C[C@H](O)c1cn(CC2CC2)c2c(-c3ccc(C4CC4)nc3)c(=O)n(-c3ccc4nn(C)cc4c3)nc12 [Example 250, (S)-5-(cyclopropylmethyl)-4-(6-cyclopropylpyridin-3-yl)-7-(1-hydroxyethyl)-2-(2-methyl-2H-indazol-5-yl)-2,5-dihydro-3H-pyrrolo[3,2-c]pyridazin-3-one] |
| 100 to 1000 | < 100 | < 100 | < 100 | Cn1cc2cc(-n3nc4c(C#N)c(Cl)n(CC5CC5)c4c(-c4ccc(C5CC5)nc4)c3=O)ccc2n1 [Example 251, 6-chloro-5-(cyclopropylmethyl)-4-(6-cyclopropylpyridin-3-yl)-2-(2-methyl-2H-indazol-5-yl)-3-oxo-3,5-dihydro-2H-pyrrolo[3,2-c]pyridazine-7-carbonitrile] |
| > 1000 | 100 to 1000 | 100 to 1000 | < 100 | Cn1cc2cc(-n3nc4c(C#N)cn(CC5CC5)c4c(-c4ccc([C@@H]5CC5(F)F)nc4)c3=O)ccc2n1 [Example 252, (S)-5-(cyclopropylmethyl)-4-(6-(2,2-difluorocyclopropyl)pyridin-3-yl)-2-(2-methyl-2H-indazol-5-yl)-3-oxo-3,5-dihydro-2H-pyrrolo[3,2-c]pyridazine-7-carbonitrile] |
| > 1000 | < 100 | 100 to 1000 | < 100 | Cn1cc2cc(-n3nc4c(C#N)cn(CC5CC5)c4c(-c4ccc([C@H]5CC5(F)F)nc4)c3=O)ccc2n1 [Example 253, (R)-5-(cyclopropylmethyl)-4-(6-(2,2-difluorocyclopropyl)pyridin-3-yl)-2-(2-methyl-2H-indazol-5-yl)-3-oxo-3,5-dihydro-2H-pyrrolo[3,2-c]pyridazine-7-carbonitrile] |
| 100 to 1000 | 100 to 1000 | 100 to 1000 | < 100 | Cn1cc2cc(-n3nc4c(C#N)cn(CC5CC5)c4c(-c4ccc(C5(C)CC5)nc4)c3=O)ccc2n1 [Example 254, 5-(cyclopropylmethyl)-2-(2-methyl-2H-indazol-5-yl)-4-[6-(1-methylcyclopropyl)pyridin-3-yl]-3-oxo-2H,3H,5H-pyrrolo[3,2-c]pyridazine-7-carbonitrile] |
| 100 to 1000 | < 100 | < 100 | < 100 | Cc1ccc(-c2c(=O)n(-c3ccc4nn(C)cc4c3)nc3c(CO)cn(CC4CC4)c23)cn1 [Example 255, 5-(cyclopropylmethyl)-7-(hydroxymethyl)-2-(2-methyl-2H-indazol-5-yl)-4-(6-methylpyridin-3-yl)-2,5-dihydro-3H-pyrrolo[3,2-c]pyridazin-3-one] |
| > 1000 | 100 to 1000 | 100 to 1000 | < 100 | Cn1cc2cc(-n3nc4c(C#N)cn(CC5CC5)c4c(-c4ccc(C5(O)CC5)nc4)c3=O)ccc2n1 [Example 256, 5-(cyclopropylmethyl)-4-(6-(1-hydroxycyclopropyl)pyridin-3-yl)-2-(2-methyl-2H-indazol-5-yl)-3-oxo-3,5-dihydro-2H-pyrrolo[3,2-c]pyridazine-7-carbonitrile] |
| > 1000 | 100 to 1000 | 100 to 1000 | < 100 | C=C(CF)c1ccc(-c2c(=O)n(-c3ccc4nn(C)cc4c3)nc3c(C#N)cn(CC4CC4)c23)cn1 [Example 257, 5-(cyclopropylmethyl)-4-(6-(3-fluoroprop-1-en-2-yl)pyridin-3-yl)-2-(2-methyl-2H-indazol-5-yl)-3-oxo-3,5-dihydro-2H-pyrrolo[3,2-c]pyridazine-7-carbonitrile] |
| 100 to 1000 | < 100 | < 100 | < 100 | Cc1ccc(-c2c(=O)n(-c3ccc4nn(C)cc4c3)nc3c(C(F)(F)F)cn(CC4CC4)c23)cn1 [Example 258, 5-(cyclopropylmethyl)-2-(2-methyl-2H-indazol-5-yl)-4-(6-methylpyridin-3-yl)-7-(trifluoromethyl)-2,5-dihydro-3H-pyrrolo[3,2-c]pyridazin-3-one] |
| > 1000 | < 100 | < 100 | < 100 | Cn1cc2cc(-n3nc4c(CC#N)cn(CC5CC5)c4c(-c4ccc(C5CC5)nc4)c3=O)ccc2n1 [Example 259, 2-(5-(cyclopropylmethyl)-4-(6-cyclopropylpyridin-3-yl)-2-(2-methyl-2H-indazol-5-yl)-3-oxo-3,5-dihydro-2H-pyrrolo[3,2-c]pyridazin-7-yl)acetonitrile] |
| > 1000 | > 1000 | > 1000 | 1000 to 10000 | Cn1cc2cc(-n3nc4c(c(-c5ccc(C6CC6)nc5)c3=O)N(CC3CC3)CC4(C)C)ccc2n1 [Example 260, 5-(cyclopropylmethyl)-4-(6-cyclopropylpyridin-3-yl)-7,7-dimethyl-2-(2-methyl-2H-indazol-5-yl)-2,5,6,7-tetrahydro-3H-pyrrolo[3,2-c]pyridazin-3-one] |
| > 1000 | > 1000 | < 100 | < 1000 | Cc1cc2nn(-c3ccc4nn(C)cc4c3)c(=O)c(-c3ccc(C4CC4)nc3)c2n1CC1CC1 [Example 263, 5-(cyclopropylmethyl)-4-(6-cyclopropylpyridin-3-yl)-6-methyl-2-(2-methyl-2H-indazol-5-yl)-2,5-dihydro-3H-pyrrolo[3,2-c]pyridazin-3-one] |
| > 1000 | < 100 | < 100 | < 100 | Cc1c(C#N)c2nn(-c3ccc4nn(C)cc4c3)c(=O)c(-c3ccc(OC(F)F)cc3)c2n1CC1CC1 [Example 264, 5-(cyclopropylmethyl)-4-(4-(difluoromethoxy)phenyl)-6-methyl-2-(2-methyl-2H-indazol-5-yl)-3-oxo-3,5-dihydro-2H-pyrrolo[3,2-c]pyridazine-7-carbonitrile] |
| > 1000 | 100 to 1000 | 100 to 1000 | < 100 | CNCc1cn(CC2CC2)c2c(-c3ccc(C4CC4)nc3)c(=O)n(-c3ccc4nn(C)cc4c3)nc12 [Example 267, 5-(cyclopropylmethyl)-4-(6-cyclopropylpyridin-3-yl)-2-(2-methyl-2H-indazol-5-yl)-7-((methylamino)methyl)-2,5-dihydro-3H-pyrrolo[3,2-c]pyridazin-3-one] |
